Consider nine compounds from US10072026B2, “Crystalline form of 3-((1R,3s,5S)-3-((7-((5-methyl-1H-pyrazol-3-yl)amino)-1,6-naphthyridin-5-yl)amino)-8-azabicyclo[3.2.1]octan-8-yl)propanenitrile” (priority 2015, dated 2018).

Like-named read-outs stand apart in the source and are kept apart here.

Data set [1] has as its target JAK1 (Homo sapiens (Human), UniProt P23458). Put plainly: LanthaScreen JAK biochemical assay (JAK1).
The test system of data set [2] is IL-4 induced STAT6 phosphorylation in THP-1 human monocytic cells. Put plainly: Cellular JAK potency assay, THP-1. As to conditions: for IC50: Homo sapiens, THP-1, read-out: THP-1 IL4 pIC50 (converted); for THP-1 IL4 pIC50: IL-4 induced STAT6 phosphorylation, THP-1 cells.
The nature of data set [3]: in vivo. More on the design: species or system Sprague Dawley rats. Conditions: Sprague Dawley, rat, po, 5 mg/kg. How it is done:
Assay 5: Colon Pharmacokinetics in Rats
Test compounds were individually formulated in 0.5% methyl-cellulose in water and dosed via oral gavage at 5 mg/kg to Sprague Dawley rats. At various time points (typically 1, 2, 4, 6, 24 hr) post dosing, blood samples were removed via cardiac puncture and intact colons were excised from the rats. Blood samples were centrifuged at 1500×g for 15 min to collect plasma. Colons were washed with ice cold phosphate buffered saline (PBS), weighed, and homogenized at a dilution of 1:10 in PBS. Plasma and colon levels of test compound were determined by LC-MS analysis against analytical standards constructed into a standard curve in the test matrix. A colon to plasma ratio was determined as the ratio of the colon AUC to the plasma AUC in μg hr/g.

For data set [4], the system named is IL-13 induced STAT6 phosphorylation in BEAS-2B human lung epithelial cells. Put plainly: AlphaScreen cellular JAK potency assay, BEAS-2B. As to conditions: for IC50: Homo sapiens, BEAS-2B, read-out: BEAS2B pIC50 (converted); for BEAS2B pIC50: IL-13 induced STAT6 phosphorylation, BEAS-2B cells. On the technique in general: Bead proximity is the source of the signal in Alpha formats.

For data set [5], the system named is oxazolone-induced colitis. The experiment in a line: Mouse model of oxazolone-induced colitis. As to conditions: mouse, PO, 1, 3, and/or 10 mg/kg BID. Type of data set: in vivo, BALB/C mice. How it is done: Assay 7: Mouse Model of Oxazalone-Induced Colitis
Oxazolone-induced colitis is an experimental model that has a histological resemblance to human ulcerative colitis (Heller et al. Immunology, 2002, 17, 629-638). Adult BALB/C mice from Harlan were used in the assay. On day 1, animals were lightly anesthetized with isoflurane and the hairs between the shoulder were carefully removed before oxazolone (4%, 150 μL, 4:1 acetone:olive oil formulation) or vehicle solution was slowly applied for skin sensitization. Seven days after skin sensitization, the mice were fasted overnight, anesthetized with isoflurane inhalation, and a 1 mL syringe equipped with a 3.5-F catheter, filled with oxazolone solution, was inserted carefully about 4 cm into the colon of the mouse. Following insertion, 50 μL of the oxazolone solution (1%, 1:1 ethanol:water formulation) was injected very slowly (over 30 sec using an injection pump) into the colon. The catheter was removed and the mice were held vertically (head down) for 2 min to ensure that the entire oxazolone solution remained inside the colon. Drug treatment (PO, BID or TID) or vehicle was initiated a day prior to the oxazolone intrarectal (IR) challenge. Two-day post oxazolone intrarectal challenge, the Disease Activity Index (DAI) was assessed by treatment-blinded experimenters for each mouse according to the criteria score: stool consistency score (0, normal; 2, loose; 4, diarrhea), gross bleeding score (0, absence; 2, blood tinged; 4, presence), and weight loss score (0, none; 1, 1%-5%; 2, 5%-10%; 3, 10%-20%; 4, more than 20%); DAI=average of (stool consistency score+gross bleeding score+weight loss score).
Selected compounds of the invention were tested in the assay. Efficacy in the model is evidenced by a decrease in DAI score as compared with the score from vehicle treated animals.

The target in data set [6] is JAK2 (Homo sapiens (Human), UniProt O60674). Put plainly: LanthaScreen JAK biochemical assay (JAK2). A general note: In TR-FRET formats the signal depends on donor and acceptor labels being close together.
In data set [7] the target is Tyk2 (Homo sapiens (Human), UniProt P29597). Put plainly: LanthaScreen JAK biochemical assay (Tyk2).
The target of data set [8] is JAK3 (Homo sapiens (Human), UniProt P52333). Put plainly: LanthaScreen JAK biochemical assay (JAK3).
Data set [9] can be described thus: Determination of absorption in cannulated rats. Conditions: Sprague Dawley rats, oral vs IV; for bioavailability: rat, plasma (jugular vein), jugular vein, read-out: oral bioavailability (F %). It counts as in vivo. How it is done: Drug levels were determined using an LC-MS-MS method. The resulting drug levels were used to compute the IV pharmacokinetic parameters: AUC IV and Dose IV. (2) Rats that have been cannulated in their portal vein (PV) and also in their jugular vein (JV) were dosed orally with test compound. Following oral dosing, plasma samples were typically collected from 0-6 hr from both the portal vein and the jugular vein. Drug levels were determined using an LC-MS-MS method. The resulting drug levels were used to compute the following pharmacokinetic parameters: AUC PO PV, AUC PO JV, and Dose PO. Using data derived from the above studies, the oral bioavailability F %, and the quantities Fa% and Fh% were calculated from the following formulas: F %=(AUC PO JV/AUC IV)*(Dose IV/Dose PO)*100 Fa%=(AUC PO PV/AUC IV)*(Dose IV/Dose PO)*100 Fh%=AUC PO JV/AUC PO PV where: AUC PO JV=Area under the curve following oral dose and plasma collected from the jugular vein AUC PO PV=Area under the curve following oral dose and plasma collected from the portal vein AUC IV=Area under the curve following an intravenous dose Dose IV=Intravenous Dose in mg/kg Dose PO=Oral Dose in mg/kg

Data set [10] has as its system mouse splenic NK cells. Put plainly: Immunosuppression effects in mouse splenic natural killer (NK) cells. Type of data set: in vivo, Balb/C mice. Conditions: PO BID three days. As to the method: Adult male Balb/C mice (12-14 weeks of age) from Harlan were used for the study. […] Spleens were harvested 1 or 2 h post last dose and crushed immediately for cell subtype staining. Prior to fixation, fluorophore-labelled antibodies for CD19 (FITC; B cells), CD3e (PE; pan T cells) and DX5 (APC; NK cells) were incubated with splenocyte samples from each animal to allow for simultaneous, multiple subtype % analysis on the flow cytometer. The number of total spleen cells for each animal was measured by Scepter™ 2.0 Handheld Automated Cell Counter. The absolute number of lymphocyte subtype population (e.g., splenic B, T and NK cells) was calculated from the percentage of each subtype times total spleen cells for each animal. A one way ANOVA, with Dunnett's post hoc test, was used to compare the splenic lymphocytes number of the vehicle and test compound groups. The a level was set at p<0.05. Data were presented as the mean±SEM for each group.

Tyk2, sequence (P29597 whole entry): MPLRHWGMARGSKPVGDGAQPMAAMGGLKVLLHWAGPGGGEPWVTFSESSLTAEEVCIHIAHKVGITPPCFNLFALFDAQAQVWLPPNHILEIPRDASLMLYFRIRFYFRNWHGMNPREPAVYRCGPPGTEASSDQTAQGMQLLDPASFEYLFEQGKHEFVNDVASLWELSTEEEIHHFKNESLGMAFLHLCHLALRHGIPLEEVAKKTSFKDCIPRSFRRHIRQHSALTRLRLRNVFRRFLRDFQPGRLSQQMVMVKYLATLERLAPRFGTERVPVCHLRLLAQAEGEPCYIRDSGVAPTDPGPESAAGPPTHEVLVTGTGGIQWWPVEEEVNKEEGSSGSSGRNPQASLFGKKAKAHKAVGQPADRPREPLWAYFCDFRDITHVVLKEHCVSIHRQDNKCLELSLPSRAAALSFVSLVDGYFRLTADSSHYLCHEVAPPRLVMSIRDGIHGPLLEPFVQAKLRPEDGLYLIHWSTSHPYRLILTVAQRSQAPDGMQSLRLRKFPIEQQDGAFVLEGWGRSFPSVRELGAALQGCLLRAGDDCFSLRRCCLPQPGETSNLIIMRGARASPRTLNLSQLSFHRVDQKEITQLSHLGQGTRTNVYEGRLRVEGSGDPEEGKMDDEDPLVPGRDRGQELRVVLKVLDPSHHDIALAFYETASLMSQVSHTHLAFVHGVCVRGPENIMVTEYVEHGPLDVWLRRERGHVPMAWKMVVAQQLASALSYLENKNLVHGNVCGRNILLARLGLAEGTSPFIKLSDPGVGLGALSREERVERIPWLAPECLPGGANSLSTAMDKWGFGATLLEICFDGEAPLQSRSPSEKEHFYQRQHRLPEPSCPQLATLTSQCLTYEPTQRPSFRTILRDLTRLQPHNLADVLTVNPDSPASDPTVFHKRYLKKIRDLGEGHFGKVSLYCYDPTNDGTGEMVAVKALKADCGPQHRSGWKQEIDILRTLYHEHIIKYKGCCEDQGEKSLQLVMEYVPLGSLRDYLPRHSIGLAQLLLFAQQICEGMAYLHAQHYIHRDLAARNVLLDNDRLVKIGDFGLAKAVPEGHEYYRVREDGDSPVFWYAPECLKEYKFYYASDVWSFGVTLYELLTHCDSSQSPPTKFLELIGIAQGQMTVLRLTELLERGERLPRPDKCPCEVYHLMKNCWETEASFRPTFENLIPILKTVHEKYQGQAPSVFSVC
JAK2, sequence (O60674 whole entry): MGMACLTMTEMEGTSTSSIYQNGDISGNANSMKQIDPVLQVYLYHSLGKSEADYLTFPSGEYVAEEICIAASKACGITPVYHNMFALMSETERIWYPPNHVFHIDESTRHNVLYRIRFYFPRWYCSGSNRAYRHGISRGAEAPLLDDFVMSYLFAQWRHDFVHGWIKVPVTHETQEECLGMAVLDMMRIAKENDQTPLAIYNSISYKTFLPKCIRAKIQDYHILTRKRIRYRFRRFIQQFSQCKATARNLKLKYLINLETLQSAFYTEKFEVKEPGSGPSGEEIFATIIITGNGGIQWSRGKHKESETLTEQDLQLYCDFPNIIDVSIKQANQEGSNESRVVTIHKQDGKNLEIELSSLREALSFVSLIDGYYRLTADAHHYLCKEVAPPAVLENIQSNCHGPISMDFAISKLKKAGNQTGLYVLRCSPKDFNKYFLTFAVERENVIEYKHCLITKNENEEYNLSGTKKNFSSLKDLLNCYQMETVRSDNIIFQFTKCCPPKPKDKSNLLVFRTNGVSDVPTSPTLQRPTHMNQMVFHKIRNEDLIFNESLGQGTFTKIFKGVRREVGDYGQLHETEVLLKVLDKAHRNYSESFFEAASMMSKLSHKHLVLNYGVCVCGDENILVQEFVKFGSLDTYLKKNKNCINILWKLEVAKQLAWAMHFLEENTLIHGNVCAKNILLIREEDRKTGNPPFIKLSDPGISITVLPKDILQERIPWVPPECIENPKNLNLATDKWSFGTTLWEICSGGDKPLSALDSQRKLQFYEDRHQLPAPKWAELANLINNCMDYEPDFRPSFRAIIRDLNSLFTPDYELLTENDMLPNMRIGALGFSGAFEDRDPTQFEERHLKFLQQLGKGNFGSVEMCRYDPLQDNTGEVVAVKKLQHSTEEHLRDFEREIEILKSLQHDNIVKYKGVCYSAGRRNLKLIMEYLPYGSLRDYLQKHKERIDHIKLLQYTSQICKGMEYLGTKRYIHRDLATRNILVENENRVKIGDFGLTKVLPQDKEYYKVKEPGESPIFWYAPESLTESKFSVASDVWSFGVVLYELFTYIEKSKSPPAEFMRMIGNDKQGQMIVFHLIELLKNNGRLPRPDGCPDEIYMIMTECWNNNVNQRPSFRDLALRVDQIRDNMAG
JAK1, sequence (P23458 whole entry): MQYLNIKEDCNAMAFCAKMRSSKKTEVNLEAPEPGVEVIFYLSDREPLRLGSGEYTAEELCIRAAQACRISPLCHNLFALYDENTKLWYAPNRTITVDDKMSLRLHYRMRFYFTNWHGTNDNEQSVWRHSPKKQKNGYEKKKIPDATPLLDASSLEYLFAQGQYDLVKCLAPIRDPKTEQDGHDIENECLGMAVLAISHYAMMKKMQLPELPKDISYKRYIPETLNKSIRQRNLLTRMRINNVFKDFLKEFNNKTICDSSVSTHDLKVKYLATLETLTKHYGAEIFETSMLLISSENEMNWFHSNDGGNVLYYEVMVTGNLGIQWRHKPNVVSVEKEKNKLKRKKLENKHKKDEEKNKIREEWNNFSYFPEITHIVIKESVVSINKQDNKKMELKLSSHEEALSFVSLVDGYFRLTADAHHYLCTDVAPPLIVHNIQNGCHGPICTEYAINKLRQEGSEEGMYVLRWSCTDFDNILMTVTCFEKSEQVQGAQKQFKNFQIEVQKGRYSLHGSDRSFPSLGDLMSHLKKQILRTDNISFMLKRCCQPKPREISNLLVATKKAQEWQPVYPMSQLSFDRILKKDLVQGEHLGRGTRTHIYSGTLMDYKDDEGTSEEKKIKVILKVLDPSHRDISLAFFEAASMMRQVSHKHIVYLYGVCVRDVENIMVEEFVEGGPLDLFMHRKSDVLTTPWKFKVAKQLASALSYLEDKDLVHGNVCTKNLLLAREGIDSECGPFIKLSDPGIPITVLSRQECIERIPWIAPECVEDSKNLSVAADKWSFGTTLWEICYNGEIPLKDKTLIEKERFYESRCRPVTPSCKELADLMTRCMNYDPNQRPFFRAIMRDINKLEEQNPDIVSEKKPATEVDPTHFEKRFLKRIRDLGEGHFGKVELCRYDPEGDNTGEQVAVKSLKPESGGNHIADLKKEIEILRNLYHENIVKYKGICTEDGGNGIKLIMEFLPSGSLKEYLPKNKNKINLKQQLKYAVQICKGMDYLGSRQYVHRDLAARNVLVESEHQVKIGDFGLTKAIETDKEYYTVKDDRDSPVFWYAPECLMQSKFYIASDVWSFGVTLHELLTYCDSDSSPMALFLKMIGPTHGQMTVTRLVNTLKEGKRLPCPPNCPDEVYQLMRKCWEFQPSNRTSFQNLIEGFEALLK

Regarding `Cc1cc(Nc2cc3ncccc3c(N[C@@H]3C[C@H]4CC[C@@H](C3)N4CCF)n2)n[nH]1` [Example 2, N^5-((1R,3s,5S)-8-(2-fluoroethyl)-8-azabicyclo[3.2.1]octan-3-yl)-N^7-(5-methyl-1H-pyrazol-3-yl)-1,6-naphthyridine-5,7-diamine], the Ki in data set [1] (read-out: JAK 1 (pKi) (converted)) and in data set [6] was 0.1 to 1 nM in each case. Besides, the IC50 in data set [2] and in [4] was 31.6 to 200 nM each time. In [3], this compound gave a Kp greater than 450. In data set [5], the “decrease in DAI score as compared with vehicle treated animals” value (“decrease in DAI score” for short) is on record as “statistically significant decrease”.

Turning to `CCC(C)C(=O)N1C2CCC1CC(Nc1nc(Nc3cc(C)[nH]n3)cc3ncccc13)C2` (centres unmarked) [Example 2-6], in data set [1], the “JAK 1 (pKi)” value is “B (B represents a pKi value between 9 and 10 (Ki between 1 nM and 0.1 nM))”. Also, the “THP-1 IL4 pIC50” value in data set [2] is “B (B represents a pEC50 value between 6.7 and 7.5 (EC50 between 200 nM and 32 nM))”. In [7], the “Tyk 2 (pKi)” value is “C (C represents a pKi value between 7 and 9 (Ki between 100 nM and 1 nM))”. Further, the “JAK 3 (pKi)” value in [8] was “C (C represents a pKi value between 7 and 9 (Ki between 100 nM and 1 nM))”. In addition, the “BEAS2B pIC50” value in data set [4] was “A (A represents a pEC50 value≥7.5 (EC50≤32 nM))”. In addition, the “decrease in DAI score” value in data set [5] was “did not exhibit a statistically significant decrease”. Besides, the “JAK 2 (pKi)” value in data set [6] was “B (B represents a pKi value between 9 and 10 (Ki between 1 nM and 0.1 nM))”.

Consider `Cc1cc(Nc2cc3ncccc3c(NC3CC4CCCC(C3)N4C(=O)C(C)O)n2)n[nH]1` (centres unmarked) [Example 2-16], for which the “JAK 1 (pKi)” value in data set [1] was “B (B represents a pKi value between 9 and 10 (Ki between 1 nM and 0.1 nM))”. Also, the “THP-1 IL4 pIC50” value in data set [2] was “B (B represents a pEC50 value between 6.7 and 7.5 (EC50 between 200 nM and 32 nM))”. The “Tyk 2 (pKi)” value in data set [7] was “B (B represents a pKi value between 9 and 10 (Ki between 1 nM and 0.1 nM))”. Further, in data set [8], the “JAK 3 (pKi)” value is “C (C represents a pKi value between 7 and 9 (Ki between 100 nM and 1 nM))”. Moreover, the “BEAS2B pIC50” value in data set [4] is “B (B represents a pEC50 value between 6.7 and 7.5 (EC50 between 200 nM and 32 nM))”. In addition, the “decrease in DAI score” value in [5] is “did not exhibit a statistically significant decrease”. Further, the “JAK 2 (pKi)” value in [6] is “B (B represents a pKi value between 9 and 10 (Ki between 1 nM and 0.1 nM))”.

Consider `Cc1cc(Nc2cc3ncccc3c(N[C@@H]3C[C@H]4CCC[C@@H](C3)N4C(=O)C(C)(C)CO)n2)n[nH]1` [Example 2-22], for which the “JAK 1 (pKi)” value in data set [1] was “B (B represents a pKi value between 9 and 10 (Ki between 1 nM and 0.1 nM))”. The “THP-1 IL4 pIC50” value in [2] was “B (B represents a pEC50 value between 6.7 and 7.5 (EC50 between 200 nM and 32 nM))”. In addition, the “Tyk 2 (pKi)” value in data set [7] was “B (B represents a pKi value between 9 and 10 (Ki between 1 nM and 0.1 nM))”. The “JAK 3 (pKi)” value in data set [8] is “C (C represents a pKi value between 7 and 9 (Ki between 100 nM and 1 nM))”. Moreover, in data set [4], the “BEAS2B pIC50” value is on record as “A (A represents a pEC50 value≥7.5 (EC50≤32 nM))”. Further, the “decrease in DAI score” value in [5] is given as “did not exhibit a statistically significant decrease”. In addition, the “JAK 2 (pKi)” value in data set [6] is “B (B represents a pKi value between 9 and 10 (Ki between 1 nM and 0.1 nM))”.

Take `Cc1cc(Nc2cc3ncccc3c(N[C@@H]3C[C@H]4CC[C@@H](C3)N4S(=O)(=O)CC(C)C)n2)n[nH]1` [Example 4-3]: the “JAK 1 (pKi)” value in [1] was “B (B represents a pKi value between 9 and 10 (Ki between 1 nM and 0.1 nM))”. Besides, the “THP-1 IL4 pIC50” value in data set [2] was “A (A represents a pEC50 value≥7.5 (EC50≤32 nM))”. In addition, in [7], the “Tyk 2 (pKi)” value is “B (B represents a pKi value between 9 and 10 (Ki between 1 nM and 0.1 nM))”. Further, in [8], the “JAK 3 (pKi)” value is “C (C represents a pKi value between 7 and 9 (Ki between 100 nM and 1 nM))”. In data set [4], the “BEAS2B pIC50” value is “A (A represents a pEC50 value≥7.5 (EC50≤32 nM))”. The “decrease in DAI score” value in data set [5] is on record as “did not exhibit a statistically significant decrease”. Also, the “JAK 2 (pKi)” value in data set [6] was “B (B represents a pKi value between 9 and 10 (Ki between 1 nM and 0.1 nM))”.

Turning to `Cc1cc(Nc2cc3ncccc3c(N[C@@H]3C[C@H]4CC[C@@H](C3)N4C(=O)C(F)F)n2)n[nH]1` [Example 5, 2,2-difluoro-1-((1R,3s,5S)-3-((7-((5-methyl-1H-pyrazol-3-yl)amino)-1,6-naphthyridin-5-yl)amino)-8-azabicyclo[3.2.1]octan-8-yl)ethan-1-one], in data set [3], the Kp is greater than 450. The “decrease in DAI score” value in data set [5] is “statistically significant decrease”.

On to `Cc1cc(Nc2cc3ncccc3c(N[C@@H]3C[C@H]4CCC[C@@H](C3)N4S(=O)(=O)c3cccnc3)n2)n[nH]1` [Example 8, N^7-(5-methyl-1H-pyrazol-3-yl)-N^5-((1R,3s,5S)-9-(pyridin-3-ylsulfonyl)-9-azabicyclo[3.3.1]nonan-3-yl)-1,6-naphthyridine-5,7-diamine], for which, in data set [9], the “absorption at the portal vein (Fa%)” value is recorded as “less than 10%” and the bioavailability was less than 5%. For the same compound, the IC50 in [2] is less than 31.6 nM. Besides, the IC50 in data set [4] was less than 31.6 nM. Moreover, the “decrease in DAI score” value in data set [5] is given as “statistically significant decrease”.

Take `Cc1cc(Nc2cc3nc(CO)ccc3c(N[C@@H]3C[C@H]4CC[C@@H](C3)N4C(=O)OCC(C)C)n2)n[nH]1` [Example 12, Isobutyl(1R,3s,5S)-3-((2-(hydroxymethyl)-7-((5-methyl-1H-pyrazol-3-yl)amino)-1,6-naphthyridin-5-yl)amino)-8-azabicyclo[3.2.1]octane-8-carboxylate]: the “absorption at the portal vein (Fa%)” value in [9] was “less than 10%”. Besides, the bioavailability in data set [9] was less than 5%. For the same compound, the Ki in data set [1] and in data set [6] (read-out: JAK 2 (pKi) (converted)) was 0.1 to 1 nM each time. In addition, the IC50 in data set [2] and in data set [4] was 31.6 to 200 nM each time. For the same compound, the “decrease in DAI score” value in data set [5] is “statistically significant decrease”.

With `C[C@@H]1CCN(C(=O)CC#N)C[C@@H]1N(C)c1ncnc2[nH]ccc12` [tofacitinib], in data set [10] (mouse spleen), the “treatment effect on B and T cell populations” value is reported as “No treatment effect”. Moreover, in data set [10] (mouse, tofacitinib 30 mg/kg, Example 1 up to 100 mg/kg), the “splenic NK cell counts” value is listed as “significantly decreased”.

A word on the bioavailability: it is the share of a dose that reaches the circulation, judged against a reference dose that is usually intravenous.
